Data on 13 compounds can be found in ChEMBL document CHEMBL1201862, “PubChem BioAssay data set” (2004).

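A five-concentration, 48-hour dose response in 96-well plates underlies each endpoint, interpolated linearly between surrounding concentrations. At the GI50, growth is halved.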 The source made the active and inactive calls. No stated cut-off is given here; in the data, active = GI50 up to about 1.1 µM and inactive = higher. Where only a bound is given, the exact number is not on record here.

Common to all, as to experiment: inhibition of tumour cell growth, NCI panel, 48 h
The subject of experiment [1] is SF-295.
In experiment [2] the test system is SK-MEL-28.
For experiment [3], the system named is OVCAR-5.
For experiment [4], the system named is SK-MEL-5.
For experiment [5], the system named is A549.
In experiment [6] the test system is MOLT-4.
In experiment [7] the test system is UO-31.
In experiment [8] the test system is SNB-75.
Experiment [9] concerns M14.
The test system of experiment [10] is MCF7.
In experiment [11] the test system is RXF 393.
Experiment [12] relates to RPMI-8226.
The subject of experiment [13] is K562.
Experiment [14] relates to ACHN.
For experiment [15], the system named is NCI-H23.
Experiment [16] concerns NCI-H226.
Experiment [17] has as its system T47D.
Experiment [18] relates to SK-OV-3.

As to `[O-][S+](CCc1ccccc1)Nc1ccccc1` (stereo unspecified), the GI50 in [1], in [2], in experiment [3], in experiment [4], in experiment [5] and in [6] was > 100 µM (inactive) in each case. Moreover, the GI50 was > 100 µM (inactive) in experiment [7]; > 100 µM (inactive) in [8]; > 100 µM (inactive) in experiment [9]; > 100 µM (inactive) in experiment [10]; 55.5 µM (inactive) in experiment [11]; > 100 µM (inactive) in [12]. Further, the GI50 in [13], in [14], in experiment [15] and in [16] was > 100 µM (inactive) throughout.

As to `CC12CC(c3ccccc3O1)C(C(=O)Nc1ccc(Cl)cc1Cl)C(=O)N2` (stereo unspecified), the GI50 in experiment [1] was 48.2 µM (inactive); in experiment [2], 72.8 µM (inactive); in experiment [3], 29.6 µM (inactive); in experiment [4], > 100 µM (inactive); in [5], 23.2 µM (inactive); in experiment [6], 19.1 µM (inactive). The GI50 in [7] was 19.2 µM (inactive); in experiment [9] it was 18 µM (inactive); in experiment [10], > 100 µM (inactive); in [12], 44 µM (inactive); in experiment [17], 20.3 µM (inactive); in experiment [13], 38.3 µM (inactive). Besides, the GI50 in experiment [14] was 25 µM (inactive); in [15], 25.9 µM (inactive); in experiment [18] it was 73.8 µM (inactive).

Consider `CCCCC1C=Cn2c(=O)oc3c(OC(C)C)c(C)c(O)c1c32` (stereo unspecified), for which the GI50 in [1] was 0.982 µM (active); in experiment [2] it was 1.19 µM (inactive); in [3] it was 4.78 µM (inactive); in [4], 2 µM (inactive); in experiment [5], 1.84 µM (inactive); in experiment [6] it was 0.824 µM (active). For the same compound, the GI50 is 0.71 µM (active) in experiment [7]; 0.466 µM (active) in experiment [8]; 1.19 µM (inactive) in experiment [9]; 0.509 µM (active) in experiment [10]; 1.42 µM (inactive) in experiment [12]; 1.85 µM (inactive) in experiment [17]. Besides, the GI50 in experiment [13] was 0.91 µM (active); in [14], 0.413 µM (active); in [15], 1.48 µM (inactive); in experiment [18], 3.14 µM (inactive); in experiment [16], 1.63 µM (inactive).

`COc1ccc(OC)c(NCC(=O)Nn2cnc3ccc(S(=O)(=O)Nc4cc(OC)ccc4OC)cc3c2=O)c1`: the GI50 in [1] was 70.3 µM (inactive); in experiment [2], > 100 µM (inactive); in [3], > 100 µM (inactive); in [5], 90.8 µM (inactive); in [6] it was 31.2 µM (inactive); in experiment [7], 75.7 µM (inactive). In addition, the GI50 in experiment [8] was > 100 µM (inactive); in [9], > 100 µM (inactive); in [10], > 100 µM (inactive); in experiment [13] it was 44.3 µM (inactive); in experiment [14] it was > 100 µM (inactive); in experiment [15], 66.7 µM (inactive). Further, the GI50 in experiment [18] and in [16] was > 100 µM (inactive) each time.

On to `CCc1cc(O)c(Cl)c(C)c1Cl`, for which the GI50 is 20 µM (inactive) in experiment [1]; 19.5 µM (inactive) in experiment [2]; 20.6 µM (inactive) in experiment [3]; 17.5 µM (inactive) in experiment [4]; 23.1 µM (inactive) in experiment [5]; 19.1 µM (inactive) in [7]. The GI50 in experiment [8] is 18.9 µM (inactive); in experiment [9] it was 18.6 µM (inactive); in [10] it was 23.2 µM (inactive); in experiment [11] it was 14.1 µM (inactive); in [12], 13.8 µM (inactive); in [17] it was 28.7 µM (inactive). Further, the GI50 in experiment [14] is 15.7 µM (inactive); in experiment [15], 19 µM (inactive); in experiment [18], 18.3 µM (inactive).

`O=C1/C(=C\c2cccc(Oc3ccccc3)c2)SC(c2ccccc2)N1c1cccc(Cl)c1` (stereo unspecified): the GI50 in [1], in [2], in experiment [3], in experiment [4], in [5] and in experiment [6] was > 100 µM (inactive) each time. The GI50 in experiment [7] was > 100 µM (inactive); in [9], > 100 µM (inactive); in experiment [11], 64.1 µM (inactive); in [12], > 100 µM (inactive); in experiment [17], > 100 µM (inactive); in experiment [13] it was > 100 µM (inactive). Besides, the GI50 in [14], in experiment [15], in experiment [18] and in experiment [16] was > 100 µM (inactive) each time.

Take `CC1(O)CC(C(F)(F)F)(C(F)(F)F)OC1=O` (stereo unspecified): the GI50 in [1], in experiment [2], in experiment [3], in experiment [4], in experiment [5] and in experiment [6] was > 10 µM (inactive) each time. Moreover, the GI50 in experiment [7], in experiment [9], in experiment [10], in [12], in experiment [17] and in [13] was > 10 µM (inactive) throughout. Also, the GI50 in [14], in experiment [15], in experiment [18] and in [16] was > 10 µM (inactive) each time.

Consider `CC[C@@H]1/C=C/C=C/C[C@H](C)[C@@H](O)[C@](C)(O)C(=O)[C@H](C)[C@@H](O)[C@H](C)C(=O)[C@H](C)[C@@H](O)[C@H](C)/C=C/C(=O)O[C@H]2[C@@H](C)[C@@H](CC1)O[C@@]1(CC[C@@H](C)[C@@H](CC(C)O)O1)[C@@H]2C` (stereo partly specified), for which the GI50 in [1] was < 0.01 µM (active); in experiment [2] it was 6.5 µM (inactive); in experiment [3], 1.68 µM (inactive); in [4], < 0.01 µM (active); in [5], < 0.01 µM (active); in experiment [6], 1.3 µM (inactive). For the same compound, the GI50 in experiment [7] is 0.0307 µM (active); in [9] it was 1.24 µM (inactive); in experiment [10] it was < 0.01 µM (active); in [11], 1.68 µM (inactive); in experiment [12], < 0.0162 µM (active); in experiment [17], < 0.01 µM (active). The GI50 in experiment [13] is < 0.01 µM (active); in experiment [14], 1.35 µM (inactive); in experiment [15] it was < 0.01 µM (active); in experiment [18] it was 3.13 µM (inactive).

Take `O=C(O)Cn1ncn(NC(=O)Cc2ccccc2)c1=S`: the GI50 in experiment [1], in [2], in [3], in experiment [4], in experiment [5] and in experiment [6] was > 10 µM (inactive) in each case. Further, the GI50 in [7], in experiment [8], in experiment [9], in experiment [10], in experiment [12] and in [17] was > 10 µM (inactive) each time. Moreover, the GI50 in experiment [13], in experiment [14], in experiment [15] and in experiment [18] was > 10 µM (inactive) each time.

Regarding `N/C(=N\c1ccc(Cl)c(Cl)c1)c1ccccc1N`, the GI50 is 40.6 µM (inactive) in experiment [1]; 24 µM (inactive) in experiment [2]; 36 µM (inactive) in [3]; 22.6 µM (inactive) in experiment [4]; 25.3 µM (inactive) in experiment [5]; 2.7 µM (inactive) in experiment [6]. The GI50 in experiment [7] was 24.2 µM (inactive); in experiment [8] it was 31.4 µM (inactive); in experiment [9] it was 15.5 µM (inactive); in experiment [10], 52.1 µM (inactive); in experiment [11], 32.7 µM (inactive); in experiment [12], 15.6 µM (inactive). Moreover, the GI50 is 18.4 µM (inactive) in [13]; 56.8 µM (inactive) in experiment [14]; 24.3 µM (inactive) in experiment [15]; 85.7 µM (inactive) in experiment [18]; 42.6 µM (inactive) in experiment [16].

Consider `CCCCCCCCCCCCOCC1(COCCCCCCCCCCCC)COC(c2ccc(N)cc2)OC1`, for which the GI50 in [1], in experiment [2], in [3], in experiment [4], in experiment [5] and in experiment [6] was > 100 µM (inactive) throughout. Also, the GI50 in experiment [7], in experiment [8], in [9], in experiment [10], in experiment [12] and in experiment [17] was > 100 µM (inactive) each time. For the same compound, the GI50 in experiment [13], in experiment [14], in [15], in experiment [18] and in experiment [16] was > 100 µM (inactive) in each case.

`CN(C)CCN1C(=O)N(CCN(C)C)c2c3cc(O)ccc3nc3c([N+](=O)[O-])ccc1c23`: the GI50 in [2] was 25.3 µM (inactive); in [4] it was 13.7 µM (inactive); in [5], 9.12 µM (inactive); in experiment [7] it was 16.7 µM (inactive); in [8] it was 19.1 µM (inactive); in [12] it was 14.2 µM (inactive). The GI50 in experiment [17] was 18.4 µM (inactive); in [13], 4.57 µM (inactive); in experiment [14] it was 6.22 µM (inactive); in experiment [15] it was 17.2 µM (inactive); in experiment [16], 12.6 µM (inactive).

Take `O=C(NCCC1CN(S(=O)(=O)C(F)(F)F)c2ccccc21)OCc1ccccc1` (stereo unspecified): the GI50 in [1] is > 100 µM (inactive); in experiment [2], > 100 µM (inactive); in [3] it was > 100 µM (inactive); in experiment [4] it was > 100 µM (inactive); in experiment [5], > 100 µM (inactive); in experiment [6], 59.2 µM (inactive). Also, the GI50 in experiment [7] was > 100 µM (inactive); in experiment [9] it was > 100 µM (inactive); in experiment [10], > 100 µM (inactive); in [11] it was > 100 µM (inactive); in [12], > 100 µM (inactive); in experiment [13] it was 66.1 µM (inactive). The GI50 in [14], in [15] and in experiment [18] was > 100 µM (inactive) each time.
